Test results published in US11180509B2, “Thiazolidone spiro pyrimidine trione compound, preparation method therefor and uses thereof” (SHANGHAI INSTITUTE OF MATERIA MEDICA, CHINESE ACADEMY OF …, priority 2017, dated 2021).
Converted amounts (≈) assume the structure as drawn.

Tests used:
Streptococcus pyogenes = assay: In vitro antibacterial activity, MIC by micro broth dilution; assay type: cell-based; details: read-out: MIC Spy
Excerpt: (§1) The following strains isolated in clinic were used in antibacterial activity screening in vitro: five strains of methicillin-resistant Staphylococcus aureus or MRSA, five strains of methicillin-sensitive Staphylococcus aureus or MSSA, five strains of methicillin-resistant Staphylococcus epidermidis or MRSE, five strains of methicillin-sensitive Staphylococcus epidermidis or MSSE, three strains of penicillin-resistant Streptococcus pneumoniae or PRSP, and three strains of Streptococcus pyogenes.
(§2) The above strains were clinically isolated pathogenic bacteria collected in Sichuan and Beijing in December 2015. They were identified by the collection unit via a VITEK-60 automatic microbiological identification instrument, and then re-identified by conventional methods in the laboratory. Before the experiment, each strain was purified by a single colony on an agar plate, and the cells freshly cultured at 37° C. overnight were appropriately diluted for the experiment. Quality control strain was Staphylococcus aureus ATCC25923 purchased from the Clinical Testing Center of the Ministry of Health of the People's Republic of China.
(§3) Medium: MH (Mueller-Hinton, hydrolyzed casein) broth (OXOID);
(§4) Culture condition: Incubate at 35-37° C. for 16-18 h.
(§5) The MIC value of each test sample for the tested strain was determined by micro broth dilution method recommended by Performance Standards for Antimicrobial Susceptibility Testing (Twenty-Third Informational Supplement; M02-A11, M07-A9 and M11-A8, 2013) of American Clinical and Laboratory Standards Institute (CLSI).
(§6) After diluting each test sample to different concentrations in MH broth, 100 μl of each sample solution at different concentrations was pipetted into a sterilized 96-well polystyrene plate. In the first to twelfth wells, the drug solution was added, and the final drug concentrations in each well were 64, 32, 16, 8, 4, 2, 1, 0.5, 0.25, 0.125, 0.06, and 0.03 mg/L. The well without drug and without bacteria was set as blank control well. The well with bacteria and without drug was set as a bacterial growth control well.
(§7) The test bacterial solution was adjusted with physiological saline to a bacterial suspension equivalent to 0.5 Maisson turbidity standard, and diluted 1:100 with MH broth. The drug solution was added so that the final concentration of the bacterial solution was about 10^4 CFU/ml; then 100 μl of bacterial solution was pipetted into the above wells (the total volume in each well was 200 μl). The plate was sealed and placed in a 35-37° C. incubator for 18-20 h, and then the results were determined. […] When Streptococcus pneumoniae was tested, sterile defibrillated sheep blood was added into the Colombian broth culture medium at a final concentration of 5% and cultivation was conducted in a 5% CO2 and 35-37° C. incubator for 18-20 hours.

[1] = tested on: methicillin-resistant Staphylococcus aureus or MRSA; assay: as above; assay type: cell-based; details: read-out: MIC MRSA
Excerpt: as §1, §2, §3, §4, §5, §6, §7

[2] = tested on: methicillin-resistant Staphylococcus epidermidis or MRSE; assay: as above; assay type: cell-based; details: read-out: MIC MRSE
Excerpt: as §1, §2, §3, §4, §5, §6, §7

[3] = tested on: methicillin-sensitive Staphylococcus aureus or MSSA; assay: as above; assay type: cell-based; details: read-out: MIC MSSA
Excerpt: as §1, §2, §3, §4, §5, §6, §7

[4] = tested on: methicillin-sensitive Staphylococcus epidermidis or MSSE; assay: as above; assay type: cell-based; details: read-out: MIC MSSE
Excerpt: as §1, §2, §3, §4, §5, §6, §7

[5] = tested on: penicillin-resistant Streptococcus pneumoniae or PRSP; assay: as above; assay type: cell-based; details: read-out: MIC PRSP
Excerpt: as §1, §2, §3, §4, §5, §6, §7

[6] = In vivo pharmacokinetics test in mice (oral); parameters: species or system CD-1 mice; details: PO 10.0 mg/kg; for AUC0→t / Cmax / MRT / t1/2 / Tmax: plasma; for Tmax: female, CD-1, mouse, read-out: Tmax
Description: Healthy female CD-1 mice were randomly divided into five groups and each group comprised three mice. The tested compound was administered orally.
0.030 mL of blood was taken from the orbit of each animal each time and anticoagulated with EDTAK2. The collection time was as follows. PO group: 15 m, 30 mi, 1 h, 2 h, 4 h, 6 h, 8 h, and 24 h after administration of the test compound. The collected blood samples were placed on ice and centrifuged within 30 minutes to separate the plasma (centrifugation conditions: 5000 rpm, 10 minutes, room temperature). The samples were stored at −80° C. before analysis.

SMILES	MIC (Streptococcus pyogenes)	MIC [1]	MIC [2]	MIC [3]	MIC [4]	MIC [5]	AUC0→t [6]	Cmax [6]	MRT [6]	t1/2 [6]	Tmax [6]	AUC0→t relative to AZD0914 ([6]; multiple of the AZD0914 value)	Cmax relative to AZD0914 ([6]; multiple of the AZD0914 value)
C[C@@H]1CN2c3c(cc4c(N5C[C@@H](C)SC5=O)noc4c3F)CC3(C(=O)NC(=O)NC3=O)[C@H]2[C@H](C)O1 [Compound 3, (2R,4S,4aS)-11-fluoro-2,4-dimethyl-8-((R)-5-methyl-2-oxothiazolin-3-yl)-1,2,4,4a-tetrahydro-2′H,6H-spiro[isoxazole[4,5-g][1,4]oxazine[4,3-a]quinoline-5,5′-pyrimidine]-2′,4′,6′(1′H,3′H)-trione]	< 0.03 µg/mL	0.03 to 0.25 µg/mL (≈ 0.0596 to 0.497 µM)	0.03 to 0.06 µg/mL (≈ 0.0596 to 0.119 µM)	0.03 to 0.125 µg/mL (≈ 0.0596 to 0.248 µM)	0.03 to 0.06 µg/mL (≈ 0.0596 to 0.119 µM)	0.03 µg/mL (≈ 0.0596 µM)	12034 ± 2835 ng·h/mL	2188 ± 223 ng/mL	4.85 ± 0.99 h	2.70 ± 0.143 h	0.583 ± 0.382 h		
C[C@@H]1CN2c3c(cc4c(N5C(=O)SC[C@H]5C)noc4c3F)CC3(C(=O)NC(=O)NC3=O)[C@H]2[C@H](C)O1 [Compound 4, (2R,4S,4aS)-11-fluoro-2,4-dimethyl-8-((R)-4-methyl-2-oxothiazolin-3-yl)-1,2,4,4a-tetrahydro-2′H,6H-spiro[isoxazole[4,5-g][1,4]oxazine[4,3-a]quinoline-5,5′-pyrimidine]-2′,4′,6′(1′H,3′H)-trione]	0.125 to 0.25 µg/mL (≈ 0.248 to 0.497 µM)	0.03 to 0.5 µg/mL (≈ 0.0596 to 0.993 µM)	0.03 to 0.125 µg/mL (≈ 0.0596 to 0.248 µM)	0.25 to 0.5 µg/mL (≈ 0.497 to 0.993 µM)	0.03 to 0.125 µg/mL (≈ 0.0596 to 0.248 µM)	0.25 to 1 µg/mL (≈ 0.497 to 1.99 µM)							
C[C@@H]1CN2c3c(cc4c(N5C(=O)SC[C@@H]5C)noc4c3F)CC3(C(=O)NC(=O)NC3=O)[C@H]2[C@H](C)O1 [Compound 5, (2R,4S,4aS)-11-fluoro-2,4-dimethyl-8-((S)-4-methyl-2-oxothiazolin-3-yl)-1,2,4,4a-tetrahydro-2′H,6H-spiro[isoxazole[4,5-g][1,4]oxazine[4,3-a]quinoline-5,5′-pyrimidine]-2′,4′,6′(1′H,3′H)-trione]	0.125 to 0.25 µg/mL (≈ 0.248 to 0.497 µM)	0.03 to 0.25 µg/mL (≈ 0.0596 to 0.497 µM)	0.06 to 0.25 µg/mL (≈ 0.119 to 0.497 µM)	0.25 to 0.5 µg/mL (≈ 0.497 to 0.993 µM)	0.03 to 0.125 µg/mL (≈ 0.0596 to 0.248 µM)	0.125 to 1 µg/mL (≈ 0.248 to 1.99 µM)							
C[C@@H]1CN2c3c(cc4c(N5C[C@H](CF)SC5=O)noc4c3F)CC3(C(=O)NC(=O)NC3=O)[C@H]2[C@H](C)O1 [Compound 6]	0.03 to 0.06 µg/mL (≈ 0.0575 to 0.115 µM)	0.03 to 1 µg/mL (≈ 0.0575 to 1.92 µM)	0.03 to 0.06 µg/mL (≈ 0.0575 to 0.115 µM)	0.06 to 0.125 µg/mL (≈ 0.115 to 0.24 µM)	< 0.03 µg/mL	0.06 to 0.25 µg/mL (≈ 0.115 to 0.479 µM)							
COC[C@H]1CN(c2noc3c(F)c4c(cc23)CC2(C(=O)NC(=O)NC2=O)[C@H]2[C@H](C)O[C@H](C)CN42)C(=O)S1 [Compound 8, (2R,4S,4aS)-11-fluoro-8-((R)-5-(methoxymethyl)-2-oxothiazolin-3-yl)-2,4-dimethyl-1,2,4,4a-tetrahydro-2′H,6H-spiro[isoxazole[4,5-g][1,4]oxazine[4,3-a]quinoline-5,5′-pyrimidine]-2′,4′,6′(1′H,3′H)-trione]	0.25 to 0.5 µg/mL (≈ 0.469 to 0.937 µM)	0.03 to 0.5 µg/mL (≈ 0.0562 to 0.937 µM)	0.03 µg/mL (≈ 0.0562 µM)	0.03 to 0.25 µg/mL (≈ 0.0562 to 0.469 µM)	0.03 to 0.125 µg/mL (≈ 0.0562 to 0.234 µM)	0.03 to 0.5 µg/mL (≈ 0.0562 to 0.937 µM)	8240 ± 940 ng·h/mL	2051 ± 88 ng/mL	3.72 ± 0.76 h	2.51 ± 0.08 h	0.583 ± 0.382 h	~11 times)	~11 times)
